What was measured:
[1] = system: plasma tumor necrosis factor alpha (TNF-α); parameters: species or system mice; conditions: mouse, in vivo
Method: (§1) To evaluate the in vivo toxicity and immune response, plasma collected on day 7 post mRNA-LNP administration for the hEPO group. ALT and TNF-alpha were measured using ELISA kits for ALT [G-Biosciences, IT5508] and TNF-alpha [R&D Systems, MTA00B] per manufacturer's protocols.

reticulocytes = assay: Plasma reticulocyte counting by flow cytometry; assay type: in vivo; conditions: mice; day 6 post-administration
Method: (§2) mRNA diluted in 50 mM citrate buffer (pH 4) and lipid mix (37.5 mM in ethanol) containing 50 mol % SM-102, 10 mol % DSPC, 38.5 mol % Cholesterol, and 1.5 mol % DMG-PEG2000 were assembled into LNP using a NanoAssemblr Spark instrument [Precision Nanosystems]. Upon formulation, mRNA-LNPs were diluted in 12 mL 1×PBS solution and the buffer was exchanged by concentrating with a 30 kDa spin filter [MilliporeSigma, UFC901008] to remove residue ethanol. Concentrations and encapsulation efficiency of mRNA were determined using Quant-it RiboGreen RNA Assay Kit [ThermoFisher, R11490]. 1 μg NanoLuc or hEPO mRNA-LNP in a total volume of 100 μL was injected through retro orbital injection into each mouse. Four mice were used for each condition of each experiment (NanoLuc imaging, hEPO ELISA, and reticulocyte counting). For NanoLuc imaging, PBS injection was used as negative control. For hEPO/reticulocyte experiments, poly(C)-LNP complex was used as negative control.
10 μL […] sample was added into 1 mL of the Reticulocyte Reagent [BD Bioscience] at the indicated time points and the mixture was incubated at room temperature for 30 minutes with protection from light. The samples were analyzed with Beckman CytoFLEX LX Flow Cytometer with 100,000-event records for each sample. Thiazole orange positive cells are defined as reticulocytes.

[2] = system: plasma alanine transaminase (ALT); assay: In vivo toxicity assay: plasma ALT ELISA; conditions: mice; hEPO mRNA-LNP groups
Method: as §1

[3] = Quantification of plasma hEPO by ELISA after mRNA-LNP injection; assay type: in vivo; conditions: mice, hEPO mRNA-LNP retro-orbital
Method: All animal procedures followed animal care guidelines approved by the Institutional Animal Care and Use Committee (IACUC) of the Broad Institute of MIT and Harvard under animal protocol #0255-08-19. Animal experiments were conducted in compliance with IACUC policies and NIH guidelines. The BALB/cj (male, 6~8 weeks old) mice used for in vivo NanoLuc assay in this study were purchased from The Jackson Laboratory (JAX). The C57BL/6 mice (female, 7 weeks old), used for hEPO assay in this study were purchased from The Jackson Laboratory (JAX).
as §2
At the indicated time points, approximately 100 μL of blood was collected with EDTA-coated capillary tubes from each mouse and then transferred to an EDTA-coated tube. The collected blood samples were centrifuged at 2000 g for 10 min, followed by transferring the resulting plasma into another tube. The hEPO levels in the plasma samples were measured by Human Erythropoietin (EPO) ELISA kit [LEGEND MAX, 442907]. Final concentrations for hEPO were adjusted based on the volume and dilution fold.

construct S20: hEPO mRNA, two LNAm7G caps, LNA-2OMe 5′ UTR, PS-2MOE_ddC tail, in LNP (SEQ ID NO: 137) (AGATAAATAAAAAA; mRNA with two LNA-m7G caps, LNA/2'-OMe UTR, PS-MOE ddC tail, in LNP, further chemistry not given here)
Plasma TNF-α (immunogenicity) [1]: No significant changes | Increase in reticulocyte counts compared to poly(C)-LNP-treated group (reticulocytes): 64% | Reticulocytes, % of total red blood cells (reticulocytes): 6.4±0.2% | Plasma ALT (toxicity) [2]: No significant changes | Plasma hEPO expression remained detectable until [3]: 6 days | Time of peak plasma hEPO expression [3]: 6 h | Peak plasma hEPO expression ([3]; 6 hours): 6009±578 mlU/mL

Reference: patent US20260263638A1, “COMPOSITIONS AND METHODS TO IMPROVE RNA PROPERTIES USING BASE, PHOSPHODIESTER LINKAGE, SUGAR BACKBONE, AND CAP MODIFICATIONS” (The Broad Institute, Inc., priority 2023, published 2026)
